The source of these data is the METLIN SMRT retention time set (Domingo-Almenara et al. 2019).

SMILES strings stand for the structures.

The data set in a line: gradient 5% acetonitrile 3 min, to 50% in 2 min, to 85% in 15 min, held 3 min, 100 µL/min. The note with it: column: Zorbax Extend-C18 2.1 x 50 mm; eluents: water / acetonitrile, 0.1% formic acid. The procedure, abridged: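 Pure standards were analyzed in mixtures of ~100 molecules using HPLC coupled to a quadrupole time-of-flight mass spectrometer, in both positive and negative ionization mode. Separation used a Zorbax Extend-C18 column (2.1 × 50 mm, 1.8 μm) at 100 μL/min, with water and acetonitrile each containing 0.1% formic acid. Dead and dwell volumes were 40 μL and 900 μL, and data were collected over 3 months. Retention time was read from computationally picked adduct peaks, each inspected manually.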
In turn, `Cn1nccc1C(=O)N1CCCC1c1ccccc1Cl` (centres undefined) had an RP-LC retention time of 823 s. The result for `COc1ccc2c(c1)C1(CCN(C(=O)NCCc3ccccc3)C1)C(=O)N2C` (centres undefined) reads 757 s; that for `CN1CCC(NC(=O)c2n[nH]c3c2CN(C(=O)c2ccccc2Br)CC3)CC1`, 595 s; that for `CN(C)S(=O)(=O)c1ccc(C(=O)Nc2nc(-c3ccc4c(c3)NC(=O)CO4)cs2)cc1`, 810 s. To `CCOc1ncccc1C(=O)NCc1cc(-c2cccs2)on1` belongs 831 s; to `CC1=C(c2ccc(F)cc2)S(=O)(=O)N=C1N1CCCN(C(=O)c2ccoc2)CC1`, 752 s.

`Cc1cc(N2CCCC2)nc(N2CCN(C(=O)C3CCCCC3)CC2)n1` had an RP-LC retention time of 693 s. To `O=C(NCCCN1CCCCC1)C1CN(S(=O)(=O)c2cccnc2)CC12CCCCC2` (centres undefined) belongs 573 s; to `CCOC(=O)c1cnc2nc(C)ccc2c1Nc1ccc(F)cc1Cl`, 742 s; to `O=C(CC(F)(F)F)N1CCC(c2noc(-c3cccnc3)n2)C1` (centres undefined), 643 s.

With `CCc1ccc(NC(=O)NCCc2cn(CC(C)C)c3ncccc23)cc1`, the RP-LC retention time is 919 s. The result for `Cc1ccc(S(=O)(=O)Nc2ccc3nc(N4CCN(CCC#N)CC4)cc(C(=O)O)c3c2)cc1C` reads 614 s. The result for `CCc1ccc(CN2C(=O)c3ccccc3C2C(=O)NCC2CCCO2)cc1` (centres undefined) reads 830 s; that for `Cc1ccc(NC(=O)Cn2c(=O)nc(N3CCCC(C)C3)c3ccccc32)cc1C` (centres undefined), 895 s. The result for `CCOc1ccc2ncc(C(=O)c3ccccc3)c(N3CCN(C)CC3)c2c1` reads 527 s. Take `O=C(COc1ccccc1)N1CCC(CNS(=O)(=O)c2ccc(Cl)s2)CC1`: the RP-LC retention time worked out at 843 s. To `Cc1cc2n(n1)CCC(=O)N2CCCC(=O)NCCCc1ccccc1` belongs 691 s; to `COc1nn(C)cc1C(=O)NCC1(c2ccc(F)cc2)CC1`, 751 s. `Cc1nnsc1C(=O)N1CCc2nc(NC(=O)c3ccco3)sc2C1`: the RP-LC retention time was 636 s. To `Cc1c2c(nn1-c1ccc(SCC(=O)NC(C)C)nn1)CCC2` belongs 841 s; to `CCC(=O)N1CCc2cc(N3CC(C(=O)Nc4cccc(C(C)=O)c4)CC3=O)ccc21` (centres undefined), 696 s; to `Fc1ccc(C2Cn3cnc(-c4nc(-c5cccs5)no4)c3CO2)cc1` (centres undefined), 1010 s.

The compound `CCCOC(=O)C1=C(C)NC2=C(C(=O)C(C(=O)OC)C(C)C2)C1c1ccc(F)cc1` (centres undefined) returned an RP-LC retention time of 958 s. To `Cn1c(=O)sc2cc(S(=O)(=O)N3CCC(C(=O)NCc4cccs4)CC3)ccc21` belongs 788 s. `CN(C)c1nccnc1OC1CCN(C(=O)C2CCOCC2)C1` (centres undefined) yielded an RP-LC retention time of 605 s. The result for `CCOC(=O)c1c(C)c(C(=O)C(C)N(CC)C(=O)c2ccc(Cl)cc2)c(C)n1C` (centres undefined) reads 876 s; that for `COc1ccc(-c2nc(NCc3ccc(C)o3)c3ccccc3n2)cc1`, 784 s; that for `CCCCS(=O)(=O)N1CCc2c(c(-c3nnc(-c4ccc(F)cc4)o3)nn2C)C1`, 893 s. The result for `CCn1cc(C(=O)N2CCC3(CCC3O)CC2)cn1` (centres undefined) reads 598 s; that for `COc1ccc(-c2nc(C)cc(C)c2CNS(=O)(=O)c2ccccc2F)cc1`, 650 s; that for `Cc1ccccc1Oc1nccn2c(=O)n(CC(=O)NCc3ccccc3)nc12`, 797 s. The result for `O=C(Nc1ccc(F)c(Cl)c1)C1CCc2sc(C(=O)N3CCOCC3)cc2C1` (centres undefined) reads 807 s. In the case of `CCOc1ccc(N2CC(CNC(=O)Nc3cc(OC)c(OC)c(OC)c3)CC2=O)cc1` (centres undefined), the RP-LC retention time was determined as 668 s. The result for `CCNS(=O)(=O)c1cccc(-c2nnc(-c3ccc(C)cc3)o2)c1` reads 922 s; that for `O=C(C1CCN(S(=O)(=O)N2CCOCC2)CC1)N1CCC(Cc2nc(C3CCOCC3)no2)CC1`, 681 s. To `CCOc1ccc(CC(=O)Nc2ccc(-c3nc(-c4ccccc4)co3)cc2)cc1OCC` belongs 1150 s; to `Cc1oc2ccn(Cc3cccc(F)c3)c(=O)c2c1C(=O)NCC1CCCO1` (centres undefined), 891 s; to `Cc1ccc(S(=O)(=O)NCc2c(-c3ccccc3)nc3sc(C)nn23)cc1`, 858 s. To `COc1cc(Nc2c(C(=O)N3CCCC(C)C3)cnc3nc(C)ccc23)cc(OC)c1` (centres undefined) belongs 657 s; to `CCN1C(=O)c2ccccc2Oc2ccc(C(=O)NC3CCCCCC3)cc21`, 1050 s. In turn, `O=C(NCC1CCCO1)c1cc2cccnc2n(Cc2ccccc2F)c1=O` (centres undefined) had an RP-LC retention time of 932 s. The result for `COc1ccc(-c2cn3c(CC(=O)N(Cc4cccs4)C4CCCC4)csc3n2)cc1OC` reads 875 s. The result for `Cc1ccc(CN2CC(c3ncc(C)n3Cc3ccccc3)C2)s1` reads 587 s; that for `COc1ccc(-c2cnn3c(C)cc(C)nc23)cc1S(=O)(=O)N1CCN(C2CCCCC2)CC1`, 690 s; that for `O=C(NC1CCCCCCC1)C1CC(=O)N(CCc2c[nH]c3ccc(Cl)cc23)C1` (centres undefined), 732 s. The result for `CCOc1ccccc1NC(=O)Cn1cnc2c(sc3nc(-c4ccccc4)ccc32)c1=O` reads 1110 s; that for `Cn1cc(-c2nc(C(=O)Nc3ccc(Cl)cc3F)cs2)c2cccnc21`, 1260 s. Regarding `Cc1ccc(C)c(CNC(=O)c2ccc(-c3cccnc3)nc2)c1`, the RP-LC retention time stood at 722 s. To `CC1=NS(=O)(=O)N(Cc2ccccc2)C=C1C(=O)OCc1nc(-c2ccc(Cl)cc2)no1` belongs 1220 s. `O=C(Nc1ccccc1)C1(CCO)CCN(Cc2ccccc2)C1` (centres undefined): the RP-LC retention time was found to be 624 s. To `CNC(=O)c1sc2nc(-c3ccc(C)cc3)c(NCCOC)n2c1C` belongs 712 s. The result for `Cc1ccc(C2CC(=O)c3cnc(Nc4nc(C)c5ccccc5n4)nc3C2)cc1` (centres undefined) reads 772 s. The result for `CCOC(=O)c1cccc(NC(=O)N2CCC3(CC2)NC(=O)c2ccccc2O3)c1` reads 804 s; that for `Cc1ccn2cc(C(=O)NCc3ccc(Cl)cc3)nc2c1`, 704 s; that for `COc1ccc(NC(=O)Cn2c(Nc3cc(C)cc(C)c3)nc(C)cc2=O)cc1Cl`, 849 s.

In turn, `CC(C)CNC(=O)c1ccc2c(ccn2C)c1` gave an RP-LC retention time of 784 s. The result for `COCc1cc(=O)n(CC(=O)Nc2ccc(Cl)cc2)c(N)n1` reads 641 s; that for `CC(C)N1C(=O)c2cccnc2Sc2cc(NC(=O)COc3ccccc3)ccc21`, 889 s.

On to `Cc1c(-c2noc(-c3cccc(F)c3)n2)nnn1-c1ccc(F)cc1`, for which the RP-LC retention time worked out at 1100 s. To `Cc1ccc(N2CN(CC(=O)Nc3ccccc3C)S(=O)(=O)c3cccnc32)cc1` belongs 813 s. In the case of `COc1ccc(S(=O)(=O)Nc2cccc(-c3cn4ccccc4n3)c2)cc1`, the RP-LC retention time was 645 s. In turn, `COc1ccc(CC(=O)NCc2c(C)cc(C)nc2-c2ccc(OC)cc2)cc1` had an RP-LC retention time of 708 s. The result for `Cc1cc(C)cc(C(=O)N2CCN(c3nc(C)cc(N4CCOCC4)n3)CC2)c1` reads 653 s; that for `COc1ccc(CNC(=O)NC2CCN(c3ccc(F)cc3)C2=O)cc1` (centres undefined), 697 s. To `O=C(c1csc(-c2cccnc2)n1)N1CCN(c2ncccn2)CC1` belongs 648 s; to `CCc1ccc(NC(=O)c2cc(C(C)C)n3nccc3n2)cc1`, 1260 s. The result for `Cc1oc(C2CCN(S(=O)(=O)c3cccc(C#N)c3)CC2)nc1C(=O)N(C)C` reads 751 s; that for `CCOC(=O)COc1cc(-c2ccc(C)cc2)nc2ccc(NC(=O)C3CCC3)cc12`, 1060 s; that for `O=C(Nc1cccc(-c2ccccc2)c1)N1CCN(C(=O)Nc2cccc(-c3ccccc3)c2)CC1`, 980 s.

The compound `O=C(NC1CCCCCC1)C1CCN(C(=O)c2ncn3c2COC(c2ccc(F)cc2)C3)CC1` (centres undefined) had an RP-LC retention time of 846 s. To `CN(C)CCCNc1ncnc2c1cnn2-c1cccc(Cl)c1` belongs 653 s; to `Cc1cc(C)c(S(=O)(=O)N2CCC(n3cnc4c(C)cccc4c3=O)CC2)c(C)c1`, 1120 s; to `Cc1nnc2c(=O)n(CC(=O)NCc3cccc(Cl)c3)c3cccnc3n12`, 700 s. `CC1CCN(c2ccc(-c3cccc(N)c3)nn2)CC1` came in with an RP-LC retention time of 588 s. The result for `Cc1cc(C(=O)Nc2ccc(N3CCOCC3)cc2)nc2cc(-c3ccsc3)nn12` reads 1030 s; that for `Cc1c(C(=O)N2CCC(C(=O)NC3CCN(Cc4ccccc4)CC3)CC2)sc2nc[nH]c(=O)c12`, 568 s. The compound `Cc1ccc(C)c(-c2nc(-c3ccc4c(c3)oc(=O)n4C)no2)c1` came in with an RP-LC retention time of 1220 s. To `O=C(Nc1ccc2nc(N3CCN(C4CCCCC4)CC3)cc(C(=O)O)c2c1)c1ccc(F)cc1` belongs 625 s. In turn, `O=C(O)c1cnc(NCc2ccco2)nc1-c1ccccc1` registered an RP-LC retention time of 772 s.
